The text below walks through data of US8114886B2, “Pyridylmethylsulfone derivative” (Daiichi Sankyo Company, Limited, priority 2005, dated 2012).

The subject of series [1] is β-amyloid protein (Aβ) secreted by E35 cells (H4 cells with APP751 gene). Description: Screening system using E35 cells for inhibition of production/secretion of β-amyloid protein (sandwich ELISA of Aβ in culture medium). The class given is cell-based, human. Conditions: 24 hours with compound, Aβ in culture supernatant by ELISA, read-out: Inhibitory Activity for Production of A(EC50). As to the method: The activity of the compound inhibiting β-amyloid protein production was measured on E35 cells prepared by introducing APP751 gene, a gene of a human wild type β-amyloid protein precursor protein, to human glioma cells (H4 cells), by quantifying the amount of β-amyloid protein (Aβ) secreted to the culture medium by means of a sandwich type Enzyme-Linked Immunosorbent Assay (ELISA) method.
That is, E35 cells inoculated on a 96-well plate were cultured in an incubator at 37° C. which was maintained at equilibrium with 5% carbon dioxide, using Dulbecco's Modified Eagle's Medium containing inactivated 10% fetal bovine serum as the culture medium. After 24 hours from the inoculation, a test compound dissolved in a DMSO solution was added. The DMSO solution of the test compound was prepared at a concentration of 2000 times of the final concentration, such that the DMSO concentration in the culture medium would be 0.05%. After culturing for another 24 hours, the culture supernatant was recovered, and this was added to a 96-well plate for ELISA onto which a monoclonal antibody against Aβ, 25-1, was solid-phased. The plate was incubated at 4° C. for 16 to 20 hours. The plate was washed with phosphate buffer solution (pH 7.4), and then a biotinylated monoclonal antibody against Aβ, MA32-40, was added thereto. The plate was left to stand at 4° C. for 2 hours. The plate was washed again with phosphate buffer solution, and then alkaline phosphatase-conjugated streptavidin was added to conjugate streptavidin to biotin. Subsequently, the plate was washed with phosphate buffer solution. To this, Blue Phos (Kirkegaard & Perry Laboratories, Inc.) was added. After incubating the plate for an appropriate time, the reaction was terminated with an acid, and the absorbance for each well was measured. The amount of Aβ contained in the culture supernatant was determined from a calibration curve which was produced separately, and the amount was compared with that of control cells to which the compound was not added. Thus, the concentration at which 50% of the Aβ production is inhibited (EC50 value) was calculated. In addition, the 25-1 antibody and MA32-40 antibody used in ELISA were mouse monoclonal antibodies derived from the hybridoma cell clone lines, which were each produced and selected according to a standard method using Aβ25-35 and Aβ1-8 as antigens, respectively, and which specifically recognize their respective antigens. […]
The scores indicate ++++ for the case where EC50 was 5 nM or less; +++ for the case where EC50 was 5 to 50 nM; ++ for the case where EC50 was 50 to 500 nM; and + for the case where EC50 was 500 nM to 5 μM.
(ELISA stands for enzyme-linked immunosorbent assay.)

The test system of series [2] is intracerebral amount of Aβ. Description: Assessment of β-amyloid protein production inhibitory action and immunosuppressing action in vivo. Conditions: male SD rats, oral, single dose, cerebrum Aβ after 3 hours, repeated administration for 7 days for immunosuppression. The source says: As an example of the compound (1), the compounds described in Example 22, Example 85, Example 101, Example 106 or Example 118 (respectively, compound represented by the above formula (1-1), (1-2), (1-3), (1-4) or (1-5), which will be hereinafter referred respectively to compound (1-1), (1-2), (1-3), (1-4) or (1-5)), or the control compound LY, was suspended in a 0.5% aqueous solution of methylcellulose, and the suspension was orally administered in a single dose to male SD rats (about 5 weeks old). For the solvent control group, a 0.5% aqueous solution of methylcellulose was administered alone. After 3 hours of administration, the brain was excised, and the cerebrum was collected. The cerebrum was homogenized with a 42% aqueous solution of formic acid, and was centrifuged at 100,000×g for 60 minutes. The resulting supernatant was neutralized with 1 M Tris, and the Aβ concentration in these samples were measured using the sandwich type ELISA method as described in Test Example 1. Furthermore, the compound (1-1) to (1-5) or control compound LY was orally administered to male SD rats repeatedly for 7 days, and the rats were subjected to histopathological and serological examinations, so as to assess the immunosuppressing effect of the compound.

Structures are written as SMILES. “Also recorded” adds a separate entry of the source. Like-named read-outs stand apart in the source and are kept apart here. Some results are limits rather than exact numbers.

One may read the EC50 as the concentration needed to bring the measured effect to its halfway point. For the compound `Cc1cc(C(=O)NCO)ncc1C(c1c(F)ccc(F)c1F)S(=O)(=O)c1ccccc1` (stereo not drawn) [Example 106, N-(1-hydroxymethyl)-4-methyl-5-[(phenylsulfonyl)(2,3,6-trifluorophenyl)methyl]pyridine-2-carboxamide], the EC50 in series [1] (Homo sapiens) is no more than 5 nM. Besides, in series [2] (listed as (1-4)), the “difference between the dose exhibiting a statistically significant decrease in the intracerebral amount of Aβ and the dose exhibiting an immunosuppressing effect” value was “sufficient differences were recognized”.

As usually defined, the melting point is the temperature of the solid-liquid transition. `Cc1cc(C(=O)NCO)ncc1C(c1cc(F)ccc1F)S(=O)(=O)c1ccc(F)cc1` (stereo not drawn) [Example 85, 5-[(2,5-difluorophenyl)[(4-fluorophenyl)sulfonyl]methyl]-N-(1-hydroxymethyl)-4-methylpyridine-2-carboxamide]: the melting point is 164 to 166 °C. Also, the EC50 in series [1] (Homo sapiens) is no more than 5 nM. Also, the “difference between the dose exhibiting a statistically significant decrease in the intracerebral amount of Aβ and the dose exhibiting an immunosuppressing effect” value in series [2] (listed as (1-2)) is reported as “sufficient differences were recognized”.

Turning to `Cc1cc(C(=O)NCO)ncc1C(c1c(F)ccc(F)c1F)S(=O)(=O)c1ccc(F)cc1` (stereo not drawn) [Example 101, 5-[[(4-Fluorophenyl)sulfonyl](2,3,6-trifluorophenyl)methyl]-N-(1-hydroxymethyl)-4-methylpyridine-2-carboxamide], in series [1] (Homo sapiens), the EC50 was no more than 5 nM. For the same compound, the “difference between the dose exhibiting a statistically significant decrease in the intracerebral amount of Aβ and the dose exhibiting an immunosuppressing effect” value in series [2] (listed as (1-3)) is given as “sufficient differences were recognized”.

Regarding `Cc1cc(C(=O)N(C)C)ncc1C(c1cc(F)ccc1F)[S+]([O-])c1ccc(F)cc1` (stereo not drawn) [Example 22, 5-[(2,5-Difluorophenyl)[(4-fluorophenyl)sulfinyl]methyl]-N,N,4-trimethylpyridine-2-carboxamide], the EC50 in series [1] (Homo sapiens) was 500 to 5000 nM. The “difference between the dose exhibiting a statistically significant decrease in the intracerebral amount of Aβ and the dose exhibiting an immunosuppressing effect” value in series [2] (listed as (1-1)) is reported as “sufficient differences were recognized; also recorded: sufficient difference”.

`Cc1cc(C(N)=O)ncc1C(c1c(F)ccc(F)c1F)S(=O)(=O)c1ccc(OC(F)(F)F)cc1` (stereo not drawn) [Example 123, 4-Methyl-5-[[[4-(trifluoromethoxy)phenyl]sulfonyl](2,3,6-trifluorophenyl)methyl]pyridine-2-carboxamide] showed a melting point of 219 to 220 °C. The concentration for a half-maximal effect (EC50) in series [1] (Homo sapiens) was no more than 5 nM.

In turn, `CON(C)C(=O)c1cc(C)c(C(c2cc(F)ccc2F)S(=O)(=O)c2ccc(F)cc2)cn1` (stereo not drawn) [Example 79, 5-[(2,5-Difluorophenyl) [(4-fluorophenyl)sulfonyl]methyl]-N-methoxy-N,4-dimethylpyridine-2-carboxamide] had a melting point of 156 to 158 °C. The EC50 in series [1] (Homo sapiens) was 50 to 500 nM.

In turn, `Cc1cc(C(N)=O)ncc1C(c1cc(F)ccc1F)S(=O)(=O)c1ccc(Cl)cc1` (stereo not drawn) [Example 9, 5-[[(4-Chlorophenyl)sulfonyl](2,5-difluorophenyl)methyl]-4-methylpyridine-2-carboxamide] returned a melting point of 241 to 242 °C. In addition, the EC50 in series [1] (Homo sapiens) is no more than 5 nM.

As to `COc1ccc(S(=O)(=O)C(c2cnc(C(=O)NCCO)cc2C)c2cc(F)ccc2F)cc1F` (stereo not drawn) [Example 47, 5-[(2,5-Difluorophenyl)[(3-fluoro-4-methoxyphenyl)sulfonyl]methyl]-N-(2-hydroxyethyl)-4-methylpyridine-2-carboxamide], the melting point lay within 137 to 138 °C. In addition, in series [1] (Homo sapiens), the EC50 lay in the range of 5 to 50 nM.

`CCNC(=O)c1cc(C)c(C(c2cc(F)ccc2F)S(=O)(=O)c2ccc(F)cc2)cn1` (stereo not drawn) [Example 16, 5-[(2,5-Difluorophenyl)[(4-fluorophenyl)sulfonyl]methyl]-N-ethyl-4-methylpyridine-2-carboxamide] displayed a melting point of 191 to 193 °C. Besides, the concentration for a half-maximal effect (EC50) in series [1] (Homo sapiens) is no more than 5 nM.

The compound `Cc1cc(C(=O)N2CCC(O)CC2)ncc1C(c1cc(F)ccc1F)S(=O)(=O)c1ccc(F)cc1` (stereo not drawn) [Example 76, 1-[[5-[(2,5-Difluorophenyl)[(4-fluorophenyl)sulfonyl]methyl]-4-methylpyridin-2-yl]carbonyl]piperidin-4-ol] registered a melting point of 171 to 173 °C. In addition, the EC50 in series [1] (Homo sapiens) lay in the range of 500 to 5000 nM.

Compound `Cc1cc(C(=O)N(C)CCO)ncc1C(c1cc(F)ccc1F)S(=O)(=O)c1ccc(F)cc1` (stereo not drawn) [Example 19, 5-[(2,5-Difluorophenyl)[(4-fluorophenyl)sulfonyl]methyl]-N-(2-hydroxyethyl)-N,4-dimethylpyridine-2-carboxamide] registered a melting point of 123 to 125 °C. The EC50 in series [1] (Homo sapiens) fell in the range of 500 to 5000 nM.

Compound `Cc1cc(C(=O)NCCCS(C)(=O)=O)ncc1C(c1cc(F)ccc1F)S(=O)(=O)c1ccc(F)cc1` (stereo not drawn) [Example 74, 5-[(2,5-Difluorophenyl)[(4-fluorophenyl)sulfonyl]methyl]-4-methyl-N-[3-(methylsulfonyl)propyl]pyridine-2-carboxamide] returned a melting point of 182 to 185 °C. In series [1] (Homo sapiens), the concentration giving a half-maximal response (EC50) is no more than 5 nM.

`CNC(=O)c1cc(C)c(C(c2cc(F)ccc2F)S(=O)(=O)c2ccc(F)cc2)cn1` (stereo not drawn) [Example 13, 5-[(2,5-difluorophenyl)[(4-fluorophenyl)sulfonyl]methyl]-N, 4-dimethylpyridine-2-carboxamide] displayed a melting point of 201 to 202 °C. In addition, the EC50 in series [1] (Homo sapiens) was no more than 5 nM.

`CONC(=O)c1cc(C)c(C(c2cc(F)ccc2F)S(=O)(=O)c2ccc(F)cc2)cn1` (stereo not drawn) [Example 78, 5-[(2,5-Difluorophenyl)[(4-fluorophenyl)sulfonyl]methyl]-N-methoxy-4-methylpyridine-2-carboxamide] came in with a melting point of 231 to 234 °C. Further, the EC50 in series [1] (Homo sapiens) is 5 to 50 nM.

As to `CC(C)[C@H](O)C(=O)N[C@@H](C)C(=O)N[C@@H]1C(=O)N(C)CCc2ccccc21` [LY, (N)—((S)-2-hydroxy-3-methyl-butyryl)-1-(L-alaninyl)-(S)-1-amino-3-methyl-4,5,6,7-tetrahydro-2H-3-benzoazepin-2-one, reference compound], in series [1], the EC50 fell in the range of 5 to 50 nM. Further, in series [2], the “difference between the dose exhibiting a statistically significant decrease in the intracerebral amount of Aβ and the dose exhibiting an immunosuppressing effect” value is listed as “no sufficient difference was recognized”.

The compound `Cc1cc(C(=O)NCO)ncc1C(c1c(F)ccc(F)c1F)S(=O)(=O)c1ccc(C(F)(F)F)nc1` (stereo not drawn) [Example 118, N-(1-hydroxymethyl)-4-methyl-5-[[[6-(trifluoromethyl)pyridin-3-yl]sulfonyl](2,3,6-trifluorophenyl)methyl]pyridine-2-carboxamide] gave a melting point of 181 to 182 °C. In series [1] (Homo sapiens), the EC50 is no more than 5 nM. In series [2] (listed as (1-5)), the “difference between the dose exhibiting a statistically significant decrease in the intracerebral amount of Aβ and the dose exhibiting an immunosuppressing effect” value is “sufficient differences were recognized”.

`Cc1cc(C(=O)NCCC[S+](C)[O-])ncc1C(c1cc(F)ccc1F)S(=O)(=O)c1ccc(F)cc1` (stereo not drawn) [Example 73, 5-[(2,5-Difluorophenyl)[(4-fluorophenyl)sulfonyl]methyl]-4-methyl-N-[3-(methylsulfinyl)propyl]pyridine-2-carboxamide]: the melting point lay in the range of 170 to 173 °C. The EC50 in series [1] (Homo sapiens) was no more than 5 nM.
